From paper PMC9967584 (2023) come the findings set out here.

The structures appear in SMILES notation.

The test system of this assay is Cocaine-targeting aptamer (DNA, aptamer) AGACAAGGAAAATCCTTCAATGAAGTGGGTCG
The experiment in a line: square wave voltammetry, aptamer on gold microelectrode. As to conditions: PBS; MCH-passivated; non-coated and PSB-coated sensors same calibration, modified Langmuir fit, constant not given.

As to `COC(=O)[C@H]1[C@@H](OC(=O)c2ccccc2)C[C@@H]2CC[C@H]1N2C`, the binding result was “yes”.
